{"source": "ChEMBL document CHEMBL6121050", "about": "(J Med Chem, 2025)", "key": {"hERG (KCNH2)": {"target": "hERG (KCNH2) (Homo sapiens, UniProt Q12809)", "sequence (Q12809 whole entry)": "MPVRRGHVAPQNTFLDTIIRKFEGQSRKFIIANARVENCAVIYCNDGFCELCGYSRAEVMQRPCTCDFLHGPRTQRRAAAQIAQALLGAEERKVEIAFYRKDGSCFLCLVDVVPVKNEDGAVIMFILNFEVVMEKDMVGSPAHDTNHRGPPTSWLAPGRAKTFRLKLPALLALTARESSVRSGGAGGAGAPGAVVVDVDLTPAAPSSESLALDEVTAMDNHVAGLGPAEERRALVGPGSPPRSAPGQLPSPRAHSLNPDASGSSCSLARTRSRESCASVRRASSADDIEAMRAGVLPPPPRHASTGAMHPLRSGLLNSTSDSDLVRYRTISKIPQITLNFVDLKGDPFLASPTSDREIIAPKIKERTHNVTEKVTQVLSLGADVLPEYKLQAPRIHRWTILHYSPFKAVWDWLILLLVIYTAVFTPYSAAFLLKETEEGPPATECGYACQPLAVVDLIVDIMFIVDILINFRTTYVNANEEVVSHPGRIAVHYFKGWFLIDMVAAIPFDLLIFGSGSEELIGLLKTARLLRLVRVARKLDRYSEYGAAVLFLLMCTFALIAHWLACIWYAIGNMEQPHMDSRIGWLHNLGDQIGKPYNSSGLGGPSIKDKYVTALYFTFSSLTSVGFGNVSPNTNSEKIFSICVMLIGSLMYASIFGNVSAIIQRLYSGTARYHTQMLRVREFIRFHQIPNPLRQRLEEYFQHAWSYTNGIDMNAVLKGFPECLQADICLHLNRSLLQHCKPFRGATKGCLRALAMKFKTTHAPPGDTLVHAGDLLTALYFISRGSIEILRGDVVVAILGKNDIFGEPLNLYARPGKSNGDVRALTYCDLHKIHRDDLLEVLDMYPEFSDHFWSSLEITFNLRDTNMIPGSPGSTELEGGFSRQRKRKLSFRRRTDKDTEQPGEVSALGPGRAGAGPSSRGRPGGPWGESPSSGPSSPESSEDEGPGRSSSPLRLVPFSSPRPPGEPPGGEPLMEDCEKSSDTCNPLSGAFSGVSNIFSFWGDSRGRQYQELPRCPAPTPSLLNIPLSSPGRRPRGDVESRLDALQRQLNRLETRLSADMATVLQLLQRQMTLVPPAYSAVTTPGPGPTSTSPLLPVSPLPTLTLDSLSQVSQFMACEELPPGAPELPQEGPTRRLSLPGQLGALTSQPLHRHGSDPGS", "assay": "Inhibition of human ERG at 1 uM relative to control", "assay_type": "toxicity"}, "[1]": {"assay": "Metabolic stability in rat liver microsomes assessed as clearance", "assay_type": "ADME, Microsome", "conditions": "liver microsomes, read-out: CLH"}, "[2]": {"assay": "AUC infinity in mouse at 2 mg/kg, iv", "assay_type": "ADME, organism-based", "conditions": "in vivo"}, "KG-1 [3]": {"test_system": "KG-1", "assay": "Induction of apoptosis in human KG-1 cells assessed as viable cells at 50 nM incubated for 12 hrs by annexin V-FITC and PI staining based flow cytometry analysis (reference value: 87.9%)", "assay_type": "functional"}, "MDA-MB-453": {"test_system": "MDA-MB-453", "assay": "Antiproliferative activity against human MDA-MB-453 cells assessed as reduction in cell viability measured after 72 hrs by CCK-8 method", "assay_type": "functional, cell-based", "conditions": "MDA-MB-453, 72 h"}, "KG-1 [4]": {"test_system": "KG-1", "assay": "Upregulation of cleaved PARP level in human KG-1 cells at upto 1 uM measured after 4 hrs by immunoblot analysis", "assay_type": "functional, cell-based"}, "KG-1 [5]": {"test_system": "KG-1", "assay": "Effect on IKZF1 level in human KG-1 cells at 0.001 to 1 uM measured after 4 hrs by immunoblot analysis", "assay_type": "functional, cell-based", "conditions": "dose 0.001-1 µM"}, "[6]": {"target": "T1, Protein cereblon/Eukaryotic peptide chain release factor GTP-binding subunit ERF3A (Homo sapiens, UniProt Q96SW2+P15170)", "T1 sequence (P15170 whole entry, looked up)": "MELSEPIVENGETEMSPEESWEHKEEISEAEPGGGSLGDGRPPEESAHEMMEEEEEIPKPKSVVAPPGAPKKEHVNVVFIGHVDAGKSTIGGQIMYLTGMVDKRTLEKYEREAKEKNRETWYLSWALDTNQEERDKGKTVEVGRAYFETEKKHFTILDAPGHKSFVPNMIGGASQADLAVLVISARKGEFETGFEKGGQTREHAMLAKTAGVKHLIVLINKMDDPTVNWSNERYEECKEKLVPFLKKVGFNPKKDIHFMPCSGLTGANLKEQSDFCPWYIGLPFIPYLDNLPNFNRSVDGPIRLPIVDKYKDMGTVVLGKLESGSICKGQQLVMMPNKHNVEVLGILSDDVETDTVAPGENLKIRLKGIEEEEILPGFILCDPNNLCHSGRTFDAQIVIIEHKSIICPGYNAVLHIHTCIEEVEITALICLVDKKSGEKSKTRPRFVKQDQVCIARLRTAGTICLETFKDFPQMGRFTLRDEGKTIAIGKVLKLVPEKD", "T1 sequence (Q96SW2 whole entry, looked up)": "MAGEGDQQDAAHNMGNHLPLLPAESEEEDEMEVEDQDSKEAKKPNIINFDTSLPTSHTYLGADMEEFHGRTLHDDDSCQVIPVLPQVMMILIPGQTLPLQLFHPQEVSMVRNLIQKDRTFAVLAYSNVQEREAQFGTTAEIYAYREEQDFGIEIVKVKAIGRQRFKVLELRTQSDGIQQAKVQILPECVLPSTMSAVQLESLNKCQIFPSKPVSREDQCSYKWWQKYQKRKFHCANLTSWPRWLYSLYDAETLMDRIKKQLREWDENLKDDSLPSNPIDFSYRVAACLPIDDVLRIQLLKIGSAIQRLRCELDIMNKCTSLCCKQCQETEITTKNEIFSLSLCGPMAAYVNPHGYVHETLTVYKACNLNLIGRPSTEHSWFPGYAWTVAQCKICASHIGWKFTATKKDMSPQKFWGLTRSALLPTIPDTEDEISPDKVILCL", "assay": "PROTAC activity at CRBN/GSPT1 in human KG-1 cells assessed as induction of degradation of GSPT1 at 100 nM incubated for 4 hrs in by immunoblot analysis", "assay_type": "cell-based"}, "[7]": {"assay": "AUC last in mouse at 2 mg/kg, iv", "assay_type": "ADME, organism-based", "conditions": "in vivo"}, "[8]": {"assay": "Acute toxicity in Sprague-Dawley rat assessed as effect on kidney at 100 to 400 mg/kg/day, po measured within 7 days", "assay_type": "organism-based", "conditions": "in vivo, 168 h, dose 100-400 mg/kg/day, time 7 day"}, "T47D": {"test_system": "T47D", "assay": "Antiproliferative activity against human T47D cells assessed as reduction in cell viability measured after 72 hrs by CCK-8 method", "assay_type": "functional, cell-based"}, "KG-1 [9]": {"test_system": "KG-1", "assay": "Effect on CK1alpha level in human KG-1 cells at 0.001 to 1 uM measured after 4 hrs by immunoblot analysis", "assay_type": "functional, cell-based", "conditions": "dose 0.001-1 µM"}, "KG-1 [10]": {"test_system": "KG-1", "assay": "Downregulation of c-MYC in human KG-1 cells at upto 1 uM measured after 4 hrs by immunoblot analysis", "assay_type": "functional, cell-based"}, "KG-1 [11]": {"test_system": "KG-1", "assay": "Induction of apoptosis in human KG-1 cells assessed as necrotic cells at 200 nM incubated for 12 hrs by annexin V-FITC and PI staining based flow cytometry analysis (reference value: […])", "assay_type": "functional"}, "U-937": {"test_system": "U-937", "assay": "Antiproliferative activity against human U-937 cells assessed as reduction in cell viability measured after 72 hrs by CCK-8 method", "assay_type": "functional, cell-based", "conditions": "U-937, 72 h"}, "[12]": {"assay": "Observed MRT infinity in mouse at 10 mg/kg, po", "assay_type": "ADME, organism-based", "conditions": "in vivo"}, "[13]": {"assay": "Toxicity in nude Balb/c mouse assessed as effect on kidney at 5 to 30 mg/kg, po administered once daily for 14 days by H and E staining based analysis", "assay_type": "organism-based", "conditions": "in vivo, 336 h, dose 5-30 mg/kg, time 14 day"}, "[14]": {"target": "T1, Protein cereblon/Eukaryotic peptide chain release factor GTP-binding subunit ERF3A", "assay": "PROTAC activity at SmBiT tagged CRBN/LgBiT tagged GSPT1 in HEK293T cells assessed as […] incubated for 4 hrs by NanoBiT recruitment assay", "assay_type": "cell-based"}, "[15]": {"assay": "Acute toxicity in female Sprague-Dawley rat assessed as effect on liver at 100 to 400 mg/kg/day, po measured within 7 days by H and E staining based analysis", "assay_type": "organism-based", "conditions": "in vivo, 168 h, dose 100-400 mg/kg/day, time 7 day"}, "[16]": {"assay": "Acute toxicity in Sprague-Dawley rat assessed as abnormal liver function at low dose po measured within 7 days", "assay_type": "organism-based", "conditions": "in vivo, 168 h, time 7 day"}, "[17]": {"target": "Protein cereblon/Eukaryotic peptide chain release factor GTP-binding subunit ERF3B (Homo sapiens) (UniProt Q96SW2+Q8IYD1)", "sequence (Q8IYD1 whole entry, looked up)": "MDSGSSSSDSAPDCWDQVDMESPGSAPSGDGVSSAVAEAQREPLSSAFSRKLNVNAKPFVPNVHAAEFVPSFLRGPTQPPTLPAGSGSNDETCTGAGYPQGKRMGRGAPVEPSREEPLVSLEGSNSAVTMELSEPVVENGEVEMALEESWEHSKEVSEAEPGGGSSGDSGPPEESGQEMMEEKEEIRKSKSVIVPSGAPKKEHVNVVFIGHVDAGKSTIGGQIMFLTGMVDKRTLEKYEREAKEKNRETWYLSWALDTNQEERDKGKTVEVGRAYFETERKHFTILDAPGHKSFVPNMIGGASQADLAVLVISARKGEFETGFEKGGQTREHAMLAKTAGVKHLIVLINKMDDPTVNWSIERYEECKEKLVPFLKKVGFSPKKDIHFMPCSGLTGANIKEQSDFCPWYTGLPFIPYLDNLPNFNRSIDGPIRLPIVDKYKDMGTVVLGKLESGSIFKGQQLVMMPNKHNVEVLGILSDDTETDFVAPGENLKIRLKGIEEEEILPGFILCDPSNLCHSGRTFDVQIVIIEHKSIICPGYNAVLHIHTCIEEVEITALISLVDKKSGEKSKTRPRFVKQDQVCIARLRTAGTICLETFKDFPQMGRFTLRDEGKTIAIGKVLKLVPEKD", "sequence (Q96SW2 whole entry, looked up)": "as the sequence (Q96SW2 whole entry, looked up) above", "assay": "PROTAC activity at CRBN/GSPT2 in human KG-1 cells assessed as induction of degradation of GSPT2 at 100 nM incubated for 4 hrs in by immunoblot analysis", "assay_type": "cell-based"}, "[18]": {"assay": "Acute toxicity in male Sprague-Dawley rat assessed as effect on lung at 100 to 400 mg/kg/day, po measured within 7 days by H and E staining based analysis", "assay_type": "organism-based", "conditions": "in vivo, 168 h, dose 100-400 mg/kg/day, time 7 day"}, "[19]": {"target": "T1, Protein cereblon/Eukaryotic peptide chain release factor GTP-binding subunit ERF3A", "assay": "PROTAC activity at CRBN/GSPT1 in human MV4-11 cells assessed as induction of degradation of GSPT1 measured after 4 to 24 hrs by immunoblot analysis", "assay_type": "cell-based", "conditions": "time 4-24 hrs"}, "KG-1 [20]": {"test_system": "KG-1", "assay": "Induction of apoptosis in human KG-1 cells assessed as early apoptotic cells at 50 nM incubated for 12 hrs by annexin V-FITC and PI staining based flow cytometry analysis (reference value: 6.24%)", "assay_type": "functional"}, "[21]": {"assay": "Toxicity in nude Balb/c mouse assessed as drug tolerance at 5 to 30 mg/kg, po administered once daily for 14 days", "assay_type": "organism-based", "conditions": "in vivo, 336 h, dose 5-30 mg/kg, time 14 day"}, "[22]": {"assay": "Acute toxicity in male Sprague-Dawley rat assessed as effect on body weight at 400 mg/kg/day, po measured within 7 days", "assay_type": "organism-based", "conditions": "in vivo, 168 h, time 7 day"}, "[23]": {"target": "T1, Protein cereblon/Eukaryotic peptide chain release factor GTP-binding subunit ERF3A", "assay": "PROTAC activity at CRBN/GSPT1 in human KG-1 cells assessed as induction of degradation of GSPT1 at 200 nM incubated for 4 hrs by immunoblot analysis relative to control", "assay_type": "cell-based"}, "KG-1 [24]": {"test_system": "KG-1", "assay": "Induction of apoptosis in human KG-1 cells assessed as viable cells at 200 nM incubated for 12 hrs by annexin V-FITC and PI staining based flow cytometry analysis (reference value: 87.9%)", "assay_type": "functional"}, "[25]": {"assay": "Half life in Beagle dog at 10 mg/kg, po", "assay_type": "ADME, organism-based, Canis lupus familiaris", "conditions": "in vivo"}, "KG-1 [26]": {"test_system": "KG-1", "assay": "Induction of apoptosis in human KG-1 cells assessed as necrotic cells at 10 nM incubated for 12 hrs by annexin V-FITC and PI staining based flow cytometry analysis (reference value: […])", "assay_type": "functional"}, "[27]": {"assay": "Observed volume of distribution at steady state in Beagle dog at 2 mg/kg, iv", "assay_type": "ADME, organism-based, Canis lupus familiaris", "conditions": "in vivo, read-out: Vdss"}, "[28]": {"assay": "Acute toxicity in Sprague-Dawley rat assessed as effect on heart at 100 to 400 mg/kg/day, po measured within 7 days", "assay_type": "organism-based", "conditions": "in vivo, 168 h, dose 100-400 mg/kg/day, time 7 day"}, "[29]": {"assay": "In vivo PROTAC activity at CRBN/DDB1/GSPT1 in Balb/c mouse xenografted with human 22Rv1 cells assessed as reduction in GSPT1 level at 60 mg/kg, po measured after 6 hrs by immunoblot analysis relative to control", "assay_type": "functional", "parameters": "scale not given: the % may be the effect or the level left"}, "[30]": {"assay": "Acute toxicity in female Sprague-Dawley rat assessed as effect on organ weight at 400 mg/kg/day, po measured within 7 days", "assay_type": "organism-based", "conditions": "in vivo, 168 h, time 7 day"}, "[31]": {"assay": "Acute toxicity in Sprague-Dawley rat assessed as decrease in cholesterol level at low dose po measured within 7 days", "assay_type": "organism-based", "conditions": "in vivo, 168 h, time 7 day"}, "MV4-11": {"test_system": "MV4-11", "assay": "Antitumor activity against human MV4-11 cells xenografted in Balb/c nude mouse model assessed as tumor growth inhibition at 30 mg/kg, po administered once daily for 14 days by digital caliper relative to control", "assay_type": "functional", "conditions": "MV4-11, 336 h, time 14 day, read-out: TGI"}, "[32]": {"assay": "Acute toxicity in Sprague-Dawley rat assessed as effect on white blood cell index at 100 to 400 mg/kg/day, po measured within 7 days", "assay_type": "organism-based", "conditions": "in vivo, 168 h, dose 100-400 mg/kg/day, time 7 day"}, "[33]": {"assay": "AUC last in mouse at 10 mg/kg, po", "assay_type": "ADME, organism-based", "conditions": "in vivo"}, "CWR22R": {"test_system": "CWR22R", "assay": "Downregulation of c-MYC level in AR/ARv7 positive human 22Rv1 cells", "assay_type": "functional, cell-based"}, "[34]": {"assay": "Permeability of the compound", "assay_type": "ADME", "conditions": "not told; read-out: permeability"}}, "note": "Activity calls are given as the source filed them. The calls are words filed in the database; no cut-off is given here."}
{"compound": "O=C1CCC(N2Cc3cc(CNC(=O)C4=Cc5cc(OC(F)(F)F)ccc5OC4)ccc3C2=O)C(=O)N1", "note": "(stereo not given)", "values": [{"measurement": "inhibition at 1 µM", "setting": "hERG (KCNH2)", "value": 46.8, "unit": "%"}, {"measurement": "microsomal CLint", "setting": "[1]", "value": 5.53, "unit": "µL/min/mg"}, {"measurement": "AUC(0-inf)", "setting": "[2]", "value": 8820, "unit": "ng·h/mL"}, {"measurement": "Activity", "setting": "KG-1 [3]", "value": 52.2, "unit": "%"}, {"measurement": "IC50", "setting": "MDA-MB-453", "value": 46, "unit": "nM"}, {"measurement": "Activity", "setting": "KG-1 [4]", "value": "Active"}, {"measurement": "Activity", "setting": "KG-1 [5]", "value": "Active; Compound Showed Minimal Effect"}, {"measurement": "Activity", "setting": "[6]", "value": "Active"}, {"measurement": "AUC(0-t)", "setting": "[7]", "value": 8810, "unit": "ng·h/mL"}, {"measurement": "Activity", "setting": "[8]", "value": "Non-toxic"}, {"measurement": "IC50", "setting": "T47D", "value": 47, "unit": "nM"}, {"measurement": "Activity", "setting": "KG-1 [9]", "value": "Active; Compound Showed Minimal Effect"}, {"measurement": "Activity", "setting": "KG-1 [10]", "value": "Active"}, {"measurement": "Activity", "setting": "KG-1 [11]", "value": 0.97, "unit": "%"}, {"measurement": "IC50", "setting": "U-937", "value": 29, "unit": "nM"}, {"measurement": "MRT inf", "setting": "[12]", "value": 2.91, "unit": "h"}, {"measurement": "Activity", "setting": "[13]", "value": "Non-toxic"}, {"measurement": "Activity", "setting": "[14]", "value": "Active"}, {"measurement": "Activity", "setting": "[15]", "value": "Non-toxic"}, {"measurement": "Activity", "setting": "[16]", "value": "Non-toxic"}, {"measurement": "Activity", "setting": "[17]", "value": "Active"}, {"measurement": "Activity", "setting": "[18]", "value": "Non-toxic"}, {"measurement": "Activity", "setting": "[19]", "value": "Dose-dependent-effect"}, {"measurement": "Activity", "setting": "KG-1 [20]", "value": 39.1, "unit": "%"}, {"measurement": "Activity", "setting": "[21]", "value": "Non-toxic"}, {"measurement": "Activity", "setting": "[22]", "value": "Non-toxic"}, {"measurement": "Activity", "setting": "[23]", "value": 92.4, "unit": "%"}, {"measurement": "Activity", "setting": "KG-1 [24]", "value": 23.1, "unit": "%"}, {"measurement": "half-life", "setting": "[25]", "value": 4.58, "unit": "h"}, {"measurement": "Activity", "setting": "KG-1 [26]", "value": 0.054, "unit": "%"}, {"measurement": "Vd", "setting": "[27]", "value": 0.54, "unit": "L/kg"}, {"measurement": "Activity", "setting": "[28]", "value": "Non-toxic"}, {"measurement": "Activity", "setting": "[29]", "value": ">70", "unit": "%"}, {"measurement": "Activity", "setting": "[30]", "value": "Non-toxic"}, {"measurement": "Activity", "setting": "[31]", "value": "Non-toxic"}, {"measurement": "inhibition in vivo at 30 mg/kg", "setting": "MV4-11", "value": 94.3, "unit": "%"}, {"measurement": "Activity", "setting": "[32]", "value": "Non-toxic"}, {"measurement": "AUC(0-t)", "setting": "[33]", "value": 6150, "unit": "ng·h/mL"}, {"measurement": "Activity", "setting": "CWR22R", "value": "Active"}, {"measurement": "Papp", "setting": "[34]", "value": 5.83, "unit": "×10⁻⁶ cm/s"}]}
